In this experiment the test system is human mixed lymphocyte reaction (MLR). Nature of the experiment: human mixed lymphocyte reaction (MLR) assay, immunosuppressant activity. The settings on record: Table 1. The experiment is classed as cell-based. As to the method: The immunosuppressant activity of the compounds of the present invention was determined using the human mixed lymphocyte reaction (MLR) assay described by Kino, T. et al. in Transplantation Proceedings, XIX(5):36-39,Suppl.
For orientation: IC50 means the concentration at which inhibition is half-maximal. A high value points to weaker potency in that assay. Turning to `CC[C@@H]1/C=C(\C)C[C@H](C)C[C@H](OC)[C@H]2O[C@@](O)(C(=O)C(=O)N3CCCC[C@H]3C(=O)O[C@H](/C(C)=C/[C@@H]3CC[C@@H](OC(=O)NO)[C@H](OC)C3)[C@H](C)[C@@H](O)CC1=O)[C@H](C)C[C@@H]2OC` [Example 27], half-maximal inhibition (IC50) required 1.28 nM.

Take `CC[C@@H]1/C=C(\C)C[C@H](C)C[C@H](OC)[C@H]2O[C@@](O)(C(=O)C(=O)N3CCCC[C@H]3C(=O)O[C@H](/C(C)=C/[C@@H]3CC[C@@H](OC(=O)N4CCC(=O)CC4)[C@H](OC)C3)[C@H](C)[C@@H](O)CC1=O)[C@H](C)C[C@@H]2OC` [Example 16]: 4.75 nM corresponded to half-maximal inhibition (IC50). Compared with the last compound, the IC50 is about 3.7-fold higher.

In the case of `CC[C@@H]1/C=C(\C)C[C@H](C)C[C@H](OC)[C@H]2O[C@@](O)(C(=O)C(=O)N3CCCC[C@H]3C(=O)O[C@H](/C(C)=C/[C@@H]3CC[C@@H](OC(=O)Nc4ccncc4)[C@H](OC)C3)[C@H](C)[C@@H](O)CC1=O)[C@H](C)C[C@@H]2OC` [Example 14], it took 0.48 nM to reach half-maximal inhibition (IC50).

For the compound `CC[C@@H]1/C=C(\C)C[C@H](C)C[C@H](OC)[C@H]2O[C@@](O)(C(=O)C(=O)N3CCCC[C@H]3C(=O)O[C@H](/C(C)=C/[C@@H]3CC[C@@H](OC(=O)N4CCC(c5ccccc5)CC4)[C@H](OC)C3)[C@H](C)[C@@H](O)CC1=O)[C@H](C)C[C@@H]2OC` [Example 19], the midpoint of inhibition, the IC50, lay at 2.6 nM.

In turn, `CC[C@@H]1/C=C(\C)C[C@H](C)C[C@H](OC)[C@H]2O[C@@](O)(C(=O)C(=O)N3CCCC[C@H]3C(=O)O[C@H](/C(C)=C/[C@@H]3CC[C@@H](OC(=O)N(CC)CCO)[C@H](OC)C3)[C@H](C)[C@@H](O)CC1=O)[C@H](C)C[C@@H]2OC` [Example 28] returned an IC50 of 4.26 nM.

Take `CC[C@@H]1/C=C(\C)C[C@H](C)C[C@H](OC)[C@H]2O[C@@](O)(C(=O)C(=O)N3CCCC[C@H]3C(=O)O[C@H](/C(C)=C/[C@@H]3CC[C@H](OC(=O)Nc4ccncc4)[C@H](OC)C3)[C@H](C)[C@@H](O)CC1=O)[C@H](C)C[C@@H]2OC` [Example 43]: the IC50 was 0.34 nM.

`CC[C@@H]1/C=C(\C)C[C@H](C)C[C@H](OC)[C@H]2O[C@@](O)(C(=O)C(=O)N3CCCC[C@H]3C(=O)O[C@H](/C(C)=C/[C@@H]3CC[C@@H](OC(=O)N(C)C[C@H](O)[C@@H](O)[C@H](O)[C@H](O)CO)[C@H](OC)C3)[C@H](C)[C@@H](O)CC1=O)[C@H](C)C[C@@H]2OC` [Example 23] came in with an IC50 of 50 nM.

Turning to `CC[C@@H]1/C=C(\C)C[C@H](C)C[C@H](OC)[C@H]2O[C@@](O)(C(=O)C(=O)N3CCCC[C@H]3C(=O)O[C@H](/C(C)=C/[C@@H]3CC[C@@H](OC(=O)N4CCC(C(N)=O)CC4)[C@H](OC)C3)[C@H](C)[C@@H](O)CC1=O)[C@H](C)C[C@@H]2OC` [Example 36], the IC50 was found to be 15 nM.

In turn, `CC[C@@H]1/C=C(\C)C[C@H](C)C[C@H](OC)[C@H]2O[C@@](O)(C(=O)C(=O)N3CCCC[C@H]3C(=O)O[C@H](/C(C)=C/[C@@H]3CC[C@@H](OC(=O)N4CCOCCOCCOCCOCC4)[C@H](OC)C3)[C@H](C)[C@@H](O)CC1=O)[C@H](C)C[C@@H]2OC` [Example 34] had an IC50 of 1.1 nM.

With `CC[C@@H]1/C=C(\C)C[C@H](C)C[C@H](OC)[C@H]2O[C@@](O)(C(=O)C(=O)N3CCCC[C@H]3C(=O)O[C@H](/C(C)=C/[C@@H]3CC[C@@H](OC(=O)NOCc4ccccc4)[C@H](OC)C3)[C@H](C)[C@@H](O)CC1=O)[C@H](C)C[C@@H]2OC` [Example 6], the IC50 worked out at 0.21 nM.

For `CC[C@@H]1/C=C(\C)C[C@H](C)C[C@H](OC)[C@H]2O[C@@](O)(C(=O)C(=O)N3CCCC[C@H]3C(=O)O[C@H](/C(C)=C/[C@@H]3CC[C@H](OC(=O)NC(CO)(CO)CO)[C@H](OC)C3)[C@H](C)[C@@H](O)CC1=O)[C@H](C)C[C@@H]2OC` [Example 40], the IC50 was 0.68 nM.

The compound `CC[C@@H]1/C=C(\C)C[C@H](C)C[C@H](OC)[C@H]2O[C@@](O)(C(=O)C(=O)N3CCCC[C@H]3C(=O)O[C@H](/C(C)=C/[C@@H]3CC[C@@H](OC(=O)N(CCO)CCO)[C@H](OC)C3)[C@H](C)[C@@H](O)CC1=O)[C@H](C)C[C@@H]2OC` [Example 13] yielded an IC50 of 3.3 nM.

Turning to `CC[C@@H]1/C=C(\C)C[C@H](C)C[C@H](OC)[C@H]2O[C@@](O)(C(=O)C(=O)N3CCCC[C@H]3C(=O)O[C@H](/C(C)=C/[C@@H]3CC[C@@H](OC(=O)N(C)Cc4ccccc4)[C@H](OC)C3)[C@H](C)[C@@H](O)CC1=O)[C@H](C)C[C@@H]2OC` [Example 29], the IC50 was 4.45 nM.

Regarding `CC[C@@H]1/C=C(\C)C[C@H](C)C[C@H](OC)[C@H]2O[C@@](O)(C(=O)C(=O)N3CCCC[C@H]3C(=O)O[C@H](/C(C)=C/[C@@H]3CC[C@@H](OC(=O)N(C)OC)[C@H](OC)C3)[C@H](C)[C@@H](O)CC1=O)[C@H](C)C[C@@H]2OC` [Example 24], inhibition was half-maximal at 1.1 nM (IC50).

`CC[C@@H]1/C=C(\C)C[C@H](C)C[C@H](OC)[C@H]2O[C@@](O)(C(=O)C(=O)N3CCCC[C@H]3C(=O)O[C@H](/C(C)=C/[C@@H]3CC[C@@H](OC(=O)N(C)CCc4ccccc4)[C@H](OC)C3)[C@H](C)[C@@H](O)CC1=O)[C@H](C)C[C@@H]2OC` [Example 30] came in with an IC50 of 4.2 nM.

The compound `CC[C@@H]1/C=C(\C)C[C@H](C)C[C@H](OC)[C@H]2O[C@@](O)(C(=O)C(=O)N3CCCC[C@H]3C(=O)O[C@H](/C(C)=C/[C@@H]3CC[C@H](OC(=O)N(CCO)CCO)[C@H](OC)C3)[C@H](C)[C@@H](O)CC1=O)[C@H](C)C[C@@H]2OC` [Example 45] registered an IC50 of 0.11 nM.

Consider `CC[C@@H]1/C=C(\C)C[C@H](C)C[C@H](OC)[C@H]2O[C@@](O)(C(=O)C(=O)N3CCCC[C@H]3C(=O)O[C@H](/C(C)=C/[C@@H]3CC[C@@H](OC(=O)N4CCNCC4)[C@H](OC)C3)[C@H](C)[C@@H](O)CC1=O)[C@H](C)C[C@@H]2OC` [Example 21], for which the midpoint of inhibition, the IC50, lay at 11 nM.

`CC[C@@H]1/C=C(\C)C[C@H](C)C[C@H](OC)[C@H]2O[C@@](O)(C(=O)C(=O)N3CCCC[C@H]3C(=O)O[C@H](/C(C)=C/[C@@H]3CC[C@@H](OC(=O)NNC(N)=O)[C@H](OC)C3)[C@H](C)[C@@H](O)CC1=O)[C@H](C)C[C@@H]2OC` [Example 5] gave an IC50 of 8.7 nM. This IC50 and that of the compound before are within 1.5-fold of each other.

In turn, `CC[C@@H]1/C=C(\C)C[C@H](C)C[C@H](OC)[C@H]2O[C@@](O)(C(=O)C(=O)N3CCCC[C@H]3C(=O)O[C@H](/C(C)=C/[C@@H]3CC[C@H](OC(=O)N4CCOCC4)[C@H](OC)C3)[C@H](C)[C@@H](O)CC1=O)[C@H](C)C[C@@H]2OC` [Example 41] gave an IC50 of 0.08 nM.

`CC[C@@H]1/C=C(\C)C[C@H](C)C[C@H](OC)[C@H]2O[C@@](O)(C(=O)C(=O)N3CCCC[C@H]3C(=O)O[C@H](/C(C)=C/[C@@H]3CC[C@@H](OC(=O)N4CCC(C(=O)O)CC4)[C@H](OC)C3)[C@H](C)[C@@H](O)CC1=O)[C@H](C)C[C@@H]2OC` [Example 18] came in with an IC50 of 13 nM.

In the case of `CC[C@@H]1/C=C(\C)C[C@H](C)C[C@H](OC)[C@H]2O[C@@](O)(C(=O)C(=O)N3CCCC[C@H]3C(=O)O[C@H](/C(C)=C/[C@@H]3CC[C@@H](OC(=O)N4CCN(C)CC4)[C@H](OC)C3)[C@H](C)[C@@H](O)CC1=O)[C@H](C)C[C@@H]2OC` [Example 22], the IC50 was found to be 28 nM.

The compound `CC[C@@H]1/C=C(\C)C[C@H](C)C[C@H](OC)[C@H]2O[C@@](O)(C(=O)C(=O)N3CCCC[C@H]3C(=O)O[C@H](/C(C)=C/[C@@H]3CC[C@@H](OC(=O)N4CCCCC4)[C@H](OC)C3)[C@H](C)[C@@H](O)CC1=O)[C@H](C)C[C@@H]2OC` [Example 12] returned an IC50 of 1.2 nM.

For the compound `CCOC(=O)CN(C)C(=O)O[C@@H]1CC[C@@H](/C=C(\C)[C@H]2OC(=O)[C@@H]3CCCCN3C(=O)C(=O)[C@]3(O)O[C@H]([C@@H](OC)C[C@@H](C)C/C(C)=C/[C@@H](CC)C(=O)C[C@H](O)[C@H]2C)[C@@H](OC)C[C@H]3C)C[C@H]1OC` [Example 32], it took 27 nM to reach half-maximal inhibition (IC50).

In turn, `CC[C@@H]1/C=C(\C)C[C@H](C)C[C@H](OC)[C@H]2O[C@@](O)(C(=O)C(=O)N3CCCC[C@H]3C(=O)O[C@H](/C(C)=C/[C@@H]3CC[C@@H](OC(=O)N4CCOCC4)[C@H](OC)C3)[C@H](C)[C@@H](O)CC1=O)[C@H](C)C[C@@H]2OC` [Example 8] gave an IC50 of 0.4 nM.

As for `CC[C@@H]1/C=C(\C)C[C@H](C)C[C@H](OC)[C@H]2O[C@@](O)(C(=O)C(=O)N3CCCC[C@H]3C(=O)O[C@H](/C(C)=C/[C@@H]3CC[C@@H](OC(=O)N(C)CCN(CC)CC)[C@H](OC)C3)[C@H](C)[C@@H](O)CC1=O)[C@H](C)C[C@@H]2OC` [Example 35], the IC50 was found to be 1.79 nM.

Consider `CC[C@@H]1/C=C(\C)C[C@H](C)C[C@H](OC)[C@H]2O[C@@](O)(C(=O)C(=O)N3CCCC[C@H]3C(=O)O[C@H](/C(C)=C/[C@@H]3CC[C@@H](OC(=O)N(C)O)[C@H](OC)C3)[C@H](C)[C@@H](O)CC1=O)[C@H](C)C[C@@H]2OC` [Example 25], for which the IC50 came to 0.28 nM.

The compound `CC[C@@H]1/C=C(\C)C[C@H](C)C[C@H](OC)[C@H]2O[C@@](O)(C(=O)C(=O)N3CCCC[C@H]3C(=O)O[C@H](/C(C)=C/[C@@H]3CC[C@@H](OC(=O)N(O)C4CCCCC4)[C@H](OC)C3)[C@H](C)[C@@H](O)CC1=O)[C@H](C)C[C@@H]2OC` [Example 26] came in with an IC50 of 1 nM.

Turning to `CC[C@@H]1/C=C(\C)C[C@H](C)C[C@H](OC)[C@H]2O[C@@](O)(C(=O)C(=O)N3CCCC[C@H]3C(=O)O[C@H](/C(C)=C/[C@@H]3CC[C@@H](OC(=O)N4CCC(O)CC4)[C@H](OC)C3)[C@H](C)[C@@H](O)CC1=O)[C@H](C)C[C@@H]2OC` [Example 15], the midpoint of inhibition, the IC50, lay at 1.34 nM.

Source of the values: patent US5534632A, “Macrocyclic carbamate immunomodulators” (Abbott Laboratories, priority 1994, dated 1996).
